According to US20220287995A1, “COMPOSITIONS AND METHODS FOR INHIBITING BACTERIAL VIRULENCE AND FLIM-BASED DEVICE AND METHOD FOR ANTIBIOTIC SUSCEPTIBILITY TESTING” (THE REGENTS OF THE UNIVERSITY OF CALIFORNIA, priority 2019, published 2022):
“Also recorded” adds a separate entry of the source.

Test system: P. aeruginosa
Experiment: Colorimetric enzyme-cycling assay of NADH and NAD+ concentrations
Format: cell-based, Pseudomonas aeruginosa
Conditions: for NADH/NAD+ ratio / total concentrations of NADH and NAD+ / change in NADH/NAD+ ratio / change in total NAD(H) production: surface-attached; for NADH/NAD+ ratio / total concentrations of NADH and NAD+: mid-exponential phase; for change in NADH/NAD+ ratio / change in total NAD(H) production: rich (PS:DB) medium, carbon source 0.2% added at 3 hours, harvested after 1 additional hour
Procedure: The concentrations of reduced and oxidized nicotinamide adenine dinucleotide (NADH, NAD^+) were measured using a colorimetric enzyme-cycling assay as described previously (45). P. aeruginosa strains were cultured overnight in PS:DB, diluted 1:100 into 60×15 mm plastic petri dishes (Corning, Corning, N.Y.) containing the same medium, and grown for 4 to 6 hours. Alternatively, strains were cultured overnight in minimal medium, diluted 1:100 into plastic petri dishes containing modified minimal medium with single carbon sources, and grown to an OD600 of 0.2. Cultures were harvested in a glove box chamber (Bel-Art, Wayne, N.J.) that had been vacuumed to remove air and flushed with nitrogen constantly throughout the experiment to prevent oxidation of NADH. Subsequent steps were performed and solutions were prepared in the glove box unless otherwise indicated. Solutions containing 0.05 to 1 μM of NADH (Sigma) or NAD^+ (Sigma) were included as calibration controls.
Planktonic cells were isolated from petri dishes, pelleted by centrifugation at 16,000×g for 1 min, the residual supernatant was discarded and the pellet was immediately resuspended in 0.2 M NaOH or HCl to extract NADH or NAD^+, respectively, as described previously (45, 46). Surface-attached cells were harvested by aspirating planktonic cells from petri dishes, washing with DB buffer or modified minimal medium with no carbon source for strains cultured in PS:DB or modified minimal medium A containing single carbon sources, respectively, adding 0.2 M NaOH or HCl, and scraping surfaces with a cell scraper (Sarstedt, Nümbrecht, Germany). As a control, the Δphz12 strain was cultured overnight in modified MOPS synthetic medium (46), diluted 1:100 in the same medium in culture tubes for 1 to 4 hours, pelleted by centrifugation, resuspended in 0.2 M NaOH or HCl, as described previously (46). The resuspensions in NaOH or HCl were neutralized using equal volume of 0.1 M HCl or NaOH, respectively, and portions were assayed for protein content, NADH, and NAD^+. Resuspensions were assayed for protein content using a BCA assay kit (ThermoFisher Scientific, Waltham, Mass.) using a 50:1 mixture of solutions A and B from the kit. Solutions were incubated at 37° C. for 30 min and measured for absorbance at 562 nm. Resuspensions that were not used for the BCA assay were normalized by protein content by diluting in Millipore-filtered water.
NADH and NAD^+ concentrations were determined by following the protocol described previously (45). Briefly, normalized resuspensions were centrifuged at 16,000×g for 10 minutes at 4° C. to remove cell debris and mixed with a reaction mixture containing 40 mM EDTA, 1 M bicine (Sigma), 4.2 mM 3-(4,5-dimethylthiazol-2-yl)-2,5-diphenyltetrazolium bromide (Sigma), 16.6 mM phenazine ethosulfate (Sigma), 1 mg/mL alcohol dehydrogenase (Sigma), and ethanol, and the absorbance at 570 nm of the solution was measured in a 96-well plate (Corning Corning, N.Y.) at 30° C. every 30 seconds for 30 minutes using a BioTek Synergy HTX reader (BioTek, Winooski, Vt.). The reaction mixture and the normalized resuspensions were aliquoted and mixed inside the glove box. The centrifugation and absorbance measurements were performed outside of the glove box. The absorbance per unit time was determined by fitting data on the initial velocity of enzyme activity, acquired between 2 to 10 minutes of the absorbance measurements. The absorbances per unit time for the NADH and NAD^+ calibration controls were linearly fit for the full range of calibration concentrations to establish a linear equation that relates the absorbance per unit time and NAD(H) concentration. The NAD(H) concentrations of the planktonic and surface-attached cell resuspensions were determined by inputting the respective absorbance per unit time fits of the samples into these equations. […]

[1] = planktonic cells, modified minimal medium, single carbon source at 0.2%
[2] = modified minimal medium, single carbon source at 0.2%

SMILES: O=C(O)CC(O)(CC(=O)O)C(=O)O [citrate]
- NAD(H) concentration relative to glycerol [1]: slightly lower
- NADH/NAD+ ratio relative to glycerol [1]: slightly greater
- NADH/NAD+ ratio [2]: increasing ratios
- total concentrations of NADH and NAD+ [2]: intermediate
- change in NADH/NAD+ ratio: greatest increases
- change in total NAD(H) production: greatest decreases; also recorded: decreased

SMILES: OCC(O)CO [glycerol]
- NADH/NAD+ ratio [2]: increasing ratios
- total concentrations of NADH and NAD+ [2]: intermediate
- change in NADH/NAD+ ratio: smallest changes
- change in total NAD(H) production: relatively small impacts
